The values below come from patent US20250115583A1, “BICYCLIC INDAZOLE GLUCOCORTICOID RECEPTOR ANTAGONISTS” (Corcept Therapeutics Incorporated, priority 2021, published 2025).

The assay concerns the target glucocorticoid receptor (Homo sapiens (Human), UniProt P04150). Nature of the assay: HepG2 TAT assay: inhibition of dexamethasone-induced tyrosine aminotransferase (TAT) activity. The assay is classed as cell-based. The note with it: HepG2 cells, challenge of 100 nM dexamethasone, 18-24 hr; IC50 converted to Ki by Cheng and Prusoff equation. The essentials: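 Cells lysed 15 min at 4 °C; TAT enzyme reaction 2 h at 37 °C, stopped with KOH, 30 min further at 37 °C. Inhibition fitted to 4-parameter logistic.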

Sequence of glucocorticoid receptor (P04150 whole entry): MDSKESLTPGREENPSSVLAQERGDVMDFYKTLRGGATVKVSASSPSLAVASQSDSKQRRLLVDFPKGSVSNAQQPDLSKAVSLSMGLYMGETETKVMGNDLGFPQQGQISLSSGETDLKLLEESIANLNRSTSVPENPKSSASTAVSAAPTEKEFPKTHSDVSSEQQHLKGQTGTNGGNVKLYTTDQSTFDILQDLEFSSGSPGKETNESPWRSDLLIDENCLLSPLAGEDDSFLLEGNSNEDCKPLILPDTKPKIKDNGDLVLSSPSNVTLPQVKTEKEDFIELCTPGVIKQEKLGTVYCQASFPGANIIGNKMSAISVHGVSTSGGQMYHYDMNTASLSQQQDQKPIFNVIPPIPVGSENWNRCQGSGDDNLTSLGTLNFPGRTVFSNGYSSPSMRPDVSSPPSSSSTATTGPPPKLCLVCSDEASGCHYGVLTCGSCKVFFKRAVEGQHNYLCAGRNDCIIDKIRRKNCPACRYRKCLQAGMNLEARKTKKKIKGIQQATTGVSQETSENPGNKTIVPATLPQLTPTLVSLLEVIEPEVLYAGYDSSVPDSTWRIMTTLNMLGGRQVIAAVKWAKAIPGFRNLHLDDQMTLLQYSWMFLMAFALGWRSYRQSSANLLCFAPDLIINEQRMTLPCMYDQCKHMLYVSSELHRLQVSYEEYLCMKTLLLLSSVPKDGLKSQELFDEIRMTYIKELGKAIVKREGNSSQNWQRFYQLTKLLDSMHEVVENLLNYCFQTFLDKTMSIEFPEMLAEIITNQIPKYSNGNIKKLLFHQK

Turning to `Cc1cc2c(cnn2-c2ccc(F)cc2)cc1[C@@]12CN(C(=O)c3ccc(F)cn3)C[C@@H]1[C@H]2c1ccccc1` (single isomer, unassigned) [Example 152, (1-(1-(4-fluorophenyl)-6-methyl-1H-indazol-5-yl)-6-phenyl-3-azabicyclo[3.1.0]hexan-3-yl)(5-fluoropyridin-2-yl)methanone], the Ki was found to be 20 nM. The value for `Cc1cc2c(cnn2-c2ccc(F)cc2)cc1[C@@]12CN(S(=O)(=O)CC3CCOCC3)C[C@@H]1[C@H]2c1ccccc1` [Example 107] was 32 nM; that for “5-(6-((4,4-difluoropiperidin-1-yl)methyl)-3-((2-methyl-2H-1,2,3-triazol-4-yl)sulfonyl)-3-azabicyclo[3.1.0]hexan-1-yl)-1-(4-fluorophenyl)-6-methyl-1H-indazole [Example 181]” was 250 nM; that for `CC(=O)NC[C@@H]1[C@H]2CN(S(=O)(=O)c3cnn(C)n3)C[C@@]12c1cc2cnn(-c3ccc(F)cc3)c2cc1C` (racemic) [Example 135, N-((1-(1-(4-fluorophenyl)-6-methyl-1H-indazol-5-yl)-3-((2-methyl-2H-1,2,3-triazol-4-yl)sulfonyl)-3-azabicyclo[3.1.0]hexan-6-yl)methyl)acetamide] was 300 nM. In turn, `COCCOCCS(=O)(=O)N1C[C@@H]2[C@@H](c3ccccc3)[C@]2(c2cc3cnn(-c4ccc(F)cc4)c3cc2C)C1` (stereo in doubt) [Example 138, 1-(4-fluorophenyl)-5-(3-((2-(2-methoxyethoxy)ethyl)sulfonyl)-6-phenyl-3-azabicyclo[3.1.0]hexan-1-yl)-6-methyl-1H-indazole] yielded a Ki of 70 nM. The value for `Cc1cc2c(cnn2-c2ccc(F)cc2)cc1[C@@]12CN(C(=O)c3ncnn3C)C[C@@H]1[C@H]2c1ccccc1` (single isomer, unassigned) [Example 170, (1-(1-(4-fluorophenyl)-6-methyl-1H-indazol-5-yl)-6-phenyl-3-azabicyclo[3.1.0]hexan-3-yl)(1-methyl-1H-1,2,4-triazol-5-yl)methanone] was 41 nM; that for `Cc1cnc(C(=O)N2C[C@@H]3[C@@H](c4ccccc4)[C@]3(c3cc4cnn(-c5ccc(F)cc5)c4cc3C)C2)s1` (stereo in doubt) [Example 176, (1-(1-(4-fluorophenyl)-6-methyl-1H-indazol-5-yl)-6-phenyl-3-azabicyclo[3.1.0]hexan-3-yl)(5-methylthiazol-2-yl)methanone] was 45 nM; that for `Cc1cc2c(cnn2-c2ccc(F)cc2)cc1[C@@]12CN(S(=O)(=O)C3COC3)C[C@@H]1[C@H]2c1ccccc1` (single isomer, unassigned) [Example 140, 5-(3-(oxetan-3-ylsulfonyl)-6-phenyl-3-azabicyclo[3.1.0]hexan-1-yl)-1-(4-fluorophenyl)-6-methyl-1H-indazole] was 65 nM. The value for `Cc1cc2c(cnn2-c2ccc(F)cc2)cc1C12CC(Oc3ccccc3)CC1CN(C(=O)c1ccccc1)C2` (stereo not shown) [Example 39] was 190 nM; that for `Cc1cc2c(cnn2-c2ccc(F)cc2)cc1[C@@]12CN(S(=O)(=O)C3CCC3)C[C@@H]1[C@H]2c1ccccc1` (stereo in doubt) [Example 139, 5-(3-(cyclobutylsulfonyl)-6-phenyl-3-azabicyclo[3.1.0]hexan-1-yl)-1-(4-fluorophenyl)-6-methyl-1H-indazole] was 45 nM; that for `Cc1cc2c(cnn2-c2ccc(F)cc2)cc1[C@@]12CN(C(=O)c3ccc(C(F)(F)F)cn3)C[C@@H]1[C@H]2c1ccccc1` (stereo in doubt) [Example 168, (1-(1-(4-fluorophenyl)-6-methyl-1H-indazol-5-yl)-6-phenyl-3-azabicyclo[3.1.0]hexan-3-yl)(5-(trifluoromethyl)pyridin-2-yl)methanone] was 39 nM. The value for `Cc1cc2c(cnn2-c2ccc(F)cc2)cc1[C@@]12CN(C(=O)c3ccccc3S(C)(=O)=O)C[C@@H]1[C@H]2c1ccccc1` (stereo in doubt) [Example 159, (1-(1-(4-fluorophenyl)-6-methyl-1H-indazol-5-yl)-6-phenyl-3-azabicyclo[3.1.0]hexan-3-yl)(2-(methylsulfonyl)phenyl)methanone] was 24 nM; that for `CCCn1cc(S(=O)(=O)N2C[C@@H]3[C@@H](c4ccccc4)[C@]3(c3cc4cnn(-c5ccc(F)cc5)c4cc3C)C2)cn1` (single isomer, unassigned) [Example 69, 1-(4-fluorophenyl)-6-methyl-5-(6-phenyl-3-((1-propyl-1H-pyrazol-4-yl)sulfonyl)-3-azabicyclo[3.1.0]hexan-1-yl)-1H-indazole] was 24 nM.

In general, Ki refers to a measure of affinity in units of concentration, obtained from inhibition or displacement. Higher therefore signals a looser hold on the target.
